Results taken from ChEMBL document CHEMBL4613212, “Insights of synthetic analogues of anti-leprosy agents” (Bioorg Med Chem, 2019).

Assays:
Mycobacterium leprae [1] = test: Anti-leprotic activity against rifampicin-susceptible Mycobacterium leprae subcultures at 4 weeks assessed as [3H]thymidine uptake per 5 times 10^7 cells at 0.2 mg/L incubated for 24 hrs (reference value: 1.41 +/- 0.20 pmol); assay type: functional
[2] = Plasma concentration in rifampin-susceptible Mycobacterium leprae infected in BALB/c mouse at 6 mg/kg administered with food daily for 12 weeks by high-pressure liquid chromatography analysis; assay type: ADME, organism-based; settings: po
Mycobacterium leprae [3] = test: Anti-leprotic activity against rifampin-susceptible Mycobacterium leprae infected in BALB/c mouse assessed as ATP level per 10^6 Mycobacterium leprae in footpad at 6 mg/kg administered with food daily for 16 weeks by Shepard's kinetic method (reference value: 27.9 +/- 3.60 pg); assay type: functional
Mycobacterium leprae [4] = test: Anti-leprotic activity against rifampin-susceptible Mycobacterium leprae infected in BALB/c mouse assessed as ATP level in footpad at 6 mg/kg administered with food daily for 1 week by Shepard's kinetic method (reference value: 102%); assay type: functional
Mycobacterium leprae [5] = test: Anti-leprotic activity against rifampin-susceptible Mycobacterium leprae infected in BALB/c mouse assessed as ATP level per 10^6 Mycobacterium leprae in footpad at 6 mg/kg administered with food daily for 8 weeks by Shepard's kinetic method (reference value: 26.1 +/- 3.7 pg); assay type: functional
Mycobacterium leprae [6] = test: Anti-leprotic activity against rifampin-susceptible Mycobacterium leprae infected in BALB/c mouse assessed as ATP level per 10^6 Mycobacterium leprae in footpad at 6 mg/kg administered with food daily for 12 weeks by Shepard's kinetic method (reference value: 26.9 +/- 2.90 pg); assay type: functional
Mycobacterium leprae [7] = test: Anti-leprotic activity against rifampicin-susceptible Mycobacterium leprae primary cultures at 4 weeks assessed as ATP level per 10^7 cells at 0.3 mg/L measured by bioluminescence assay (reference value: 332 +/- 46 pg); assay type: functional
[8] = Plasma concentration in rifampin-susceptible Mycobacterium leprae infected in BALB/c mouse at 6 mg/kg administered with food daily for 1 week by high-pressure liquid chromatography analysis; assay type: ADME, organism-based; settings: po
Mycobacterium leprae [9] = test: Anti-leprotic activity against rifampin-susceptible Mycobacterium leprae infected in armadillo assessed as bacterial counts in footpad at 6 mg/kg administered with food daily for 2 weeks (reference value: 125%); assay type: functional
Mycobacterium leprae [10] = test: Anti-leprotic activity against rifampin-susceptible Mycobacterium leprae infected in armadillo assessed as bacterial counts in footpad at 6 mg/kg administered with food daily for 4 weeks (reference value: 141%); assay type: functional
Mycobacterium leprae [11] = test: Anti-leprotic activity against rifampicin-susceptible Mycobacterium leprae primary cultures at 4 weeks assessed as ATP level per 10^7 cells at 0.1 mg/L measured by bioluminescence assay (reference value: 332 +/- 46 pg); assay type: functional
Mycobacterium leprae [12] = test: Anti-leprotic activity against rifampin-susceptible Mycobacterium leprae infected in BALB/c mouse assessed as ATP level in footpad at 6 mg/kg administered with food daily for 2 weeks by Shepard's kinetic method (reference value: 109%); assay type: functional
Mycobacterium leprae [13] = test: Anti-leprotic activity against rifampin-susceptible Mycobacterium leprae infected in armadillo assessed as bacterial counts in footpad at 6 mg/kg administered with food daily for 16 weeks (reference value: 226%); assay type: functional
Mycobacterium leprae [14] = test: Anti-leprotic activity against rifampicin-susceptible Mycobacterium leprae primary cultures at 4 weeks assessed as [3H]thymidine uptake per 5 times 10^7 cells at 0.3 mg/L incubated for 24 hrs (reference value: 1.05 +/- 0.16 pmol); assay type: functional
Mycobacterium leprae [15] = test: Anti-leprotic activity against rifampin-susceptible Mycobacterium leprae infected in armadillo assessed as bacterial counts in footpad at 6 mg/kg administered with food daily for 8 weeks (reference value: 162%); assay type: functional
Mycobacterium leprae [16] = test: Anti-leprotic activity against rifampin-susceptible Mycobacterium leprae infected in BALB/c mouse assessed as ATP level in footpad at 6 mg/kg administered with food daily for 4 weeks by Shepard's kinetic method (reference value: 98%); assay type: functional
Mycobacterium leprae [17] = test: Anti-leprotic activity against rifampicin-susceptible Mycobacterium leprae subcultures at 4 weeks assessed as ATP level per 10^7 cells at 0.3 mg/L measured by bioluminescence assay (reference value: 425 +/- 64 pg); assay type: functional
[18] = Plasma concentration in rifampin-susceptible Mycobacterium leprae infected in BALB/c mouse at 6 mg/kg administered with food daily for 4 weeks by high-pressure liquid chromatography analysis; assay type: ADME, organism-based; settings: po
Mycobacterium leprae [19] = test: Anti-leprotic activity against rifampicin-susceptible Mycobacterium leprae primary cultures at 4 weeks assessed as [3H]thymidine uptake per 5 times 10^7 cells at 0.2 mg/L incubated for 24 hrs (reference value: 1.05 +/- 0.16 pmol); assay type: functional
Mycobacterium leprae [20] = test: (§1) Inhibition of PGL1 synthesis in Mycobacterium leprae infected Swiss Webster mouse macrophages assessed as decrease in [U-14C]PA incorporation at 0.2 uM preincubated for 4 days post infection followed by [U-14C]PA addition and measured after 7 days by liquid scintillation counter analysis relative to control; assay type: functional
Mycobacterium leprae [21] = test: Anti-leprotic activity against rifampicin-susceptible Mycobacterium leprae subcultures at 4 weeks assessed as [3H]thymidine uptake per 5 times 10^7 cells at 0.3 mg/L incubated for 24 hrs (reference value: 1.41 +/- 0.20 pmol); assay type: functional
[22] = Plasma concentration in rifampin-susceptible Mycobacterium leprae infected in BALB/c mouse at 6 mg/kg administered with food daily for 2 weeks by high-pressure liquid chromatography analysis; assay type: ADME, organism-based; settings: po
Mycobacterium leprae [23] = test: Anti-leprotic activity against rifampicin-susceptible Mycobacterium leprae subcultures at 4 weeks assessed as [3H]thymidine uptake per 5 times 10^7 cells at 0.1 mg/L incubated for 24 hrs (reference value: 1.41 +/- 0.20 pmol); assay type: functional
Mycobacterium leprae [24] = test: Anti-leprotic activity against rifampicin-susceptible Mycobacterium leprae subcultures at 4 weeks assessed as ATP level per 10^7 cells at 0.1 mg/L measured by bioluminescence assay (reference value: 425 +/- 64 pg); assay type: functional
Mycobacterium leprae [25] = test: Anti-leprotic activity against rifampicin-susceptible Mycobacterium leprae subcultures at 4 weeks assessed as ATP level per 10^7 cells at 0.2 mg/L measured by bioluminescence assay (reference value: 425 +/- 64 pg); assay type: functional
Mycobacterium leprae [26] = test: Anti-leprotic activity against rifampicin-susceptible Mycobacterium leprae primary cultures at 4 weeks assessed as ATP level per 10^7 cells at 0.2 mg/L measured by bioluminescence assay (reference value: 332 +/- 46 pg); assay type: functional
Mycobacterium leprae [27] = test: as §1, with “2” for “0.2”; assay type: functional
Mycobacterium leprae [28] = test: Anti-leprotic activity against rifampin-susceptible Mycobacterium leprae infected in armadillo assessed as bacterial counts in footpad at 6 mg/kg administered with food daily for 12 weeks (reference value: 190%); assay type: functional
Mycobacterium leprae [29] = test: Anti-leprotic activity against rifampin-susceptible Mycobacterium leprae infected in armadillo assessed as bacterial counts in footpad at 6 mg/kg administered with food daily for 1 week (reference value: 110%); assay type: functional
[30] = Plasma concentration in rifampin-susceptible Mycobacterium leprae infected in BALB/c mouse at 6 mg/kg administered with food daily for 8 weeks by high-pressure liquid chromatography analysis; assay type: ADME, organism-based; settings: po
Mycobacterium leprae [31] = test: Anti-leprotic activity against rifampicin-susceptible Mycobacterium leprae primary cultures at 4 weeks assessed as [3H]thymidine uptake per 5 times 10^7 cells at 0.1 mg/L incubated for 24 hrs (reference value: 1.05 +/- 0.16 pmol); assay type: functional
Mycobacterium leprae [32] = test: Antimicrobial activity against Mycobacterium leprae assessed as microbial growth at 0.375 ug/ml in presence of 0.0125 ug/ml KRM-1648 measured at 4 weeks (reference value: 147 +/- 19.1%); assay type: functional
Mycobacterium leprae [33] = test: Antimicrobial activity against Mycobacterium leprae assessed as microbial growth at 0.75 ug/ml in presence of 0.1 ug/ml rifampin measured at 4 weeks (reference value: 147 +/- 19.1%); assay type: functional
Mycobacterium leprae [34] = test: Antimicrobial activity against Mycobacterium leprae assessed as fractional inhibitory concentration index at 0.375 ug/ml in presence of 0.0125 ug/ml KRM-1648 measured at 4 weeks; assay type: functional
Mycobacterium leprae [35] = test: Antimicrobial activity against Mycobacterium leprae assessed as fractional inhibitory concentration index at 0.75 ug/ml in presence of 0.2 ug/ml rifampin measured at 4 weeks; assay type: functional
Mycobacterium leprae [36] = test: Antimicrobial activity against Mycobacterium leprae assessed as microbial growth at 0.375 ug/ml in presence of 0.05 ug/ml rifabutin measured at 4 weeks (reference value: 147 +/- 19.1%); assay type: functional
Mycobacterium leprae [37] = test: Antimicrobial activity against Mycobacterium leprae assessed as fractional inhibitory concentration index at 0.375 ug/ml in presence of 0.05 ug/ml rifabutin measured at 4 weeks; assay type: functional
Mycobacterium leprae [38] = test: Antimicrobial activity against Mycobacterium leprae assessed as microbial growth at 0.75 ug/ml in presence of 0.2 ug/ml rifampin measured at 4 weeks (reference value: 147 +/- 19.1%); assay type: functional
Mycobacterium leprae [39] = test: Antimicrobial activity against Mycobacterium leprae assessed as microbial growth at 0.375 ug/ml in presence of 0.025 ug/ml rifabutin measured at 4 weeks (reference value: 147 +/- 19.1%); assay type: functional
Mycobacterium leprae [40] = test: Antimicrobial activity against Mycobacterium leprae assessed as microbial growth at 0.375 ug/ml in presence of 0.0062 ug/ml KRM-1648 measured at 4 weeks (reference value: 147 +/- 19.1%); assay type: functional

## CO[C@H]1/C=C/O[C@@]2(C)Oc3c(C)c(O)c4c(c3C2=O)C2=NC3(CCN(CC(C)C)CC3)NC2=C(NC(=O)/C(C)=C\C=C\[C@H](C)[C@H](O)[C@@H](C)[C@@H](O)[C@@H](C)[C@H](OC(C)=O)[C@@H]1C)C4=O [RIFABUTIN]
Mycobacterium leprae [1]
  Activity: 0.49 pmol
[2]
  concentration at 2016 h: 90 ng/mL
Mycobacterium leprae [3]
  Activity: 0 pg
Mycobacterium leprae [4]
  Activity: 72%
Mycobacterium leprae [5]
  Activity: 0.049 pg
Mycobacterium leprae [6]
  Activity: 0 pg
Mycobacterium leprae [7]
  Activity: 0 pg
[8]
  concentration at 168 h: 380 ng/mL
Mycobacterium leprae [9]
  Activity: 98%
Mycobacterium leprae [10]
  Activity: 94%
Mycobacterium leprae [11]
  Activity: 192 pg
Mycobacterium leprae [12]
  Activity: 21%
Mycobacterium leprae [13]
  Activity: 77%
Mycobacterium leprae [14]
  Activity: 0 pmol
Mycobacterium leprae [15]
  Activity: 89%
Mycobacterium leprae [16]
  Activity: 9%
Mycobacterium leprae [17]
  Activity: 0 pg
[18]
  concentration at 672 h: 510 ng/mL
Mycobacterium leprae [19]
  Activity: 0 pmol
Mycobacterium leprae [20]
  inhibition at 0.2 µM: 84%
Mycobacterium leprae [21]
  Activity: 0 pmol
[22]
  concentration at 336 h: 450 ng/mL
Mycobacterium leprae [23]
  Activity: 0 pmol
Mycobacterium leprae [24]
  Activity: 127 pg
Mycobacterium leprae [25]
  Activity: 0 pg
Mycobacterium leprae [26]
  Activity: 0 pg
Mycobacterium leprae [27]
  inhibition at 2 µM: 96%
Mycobacterium leprae [28]
  Activity: 83%
Mycobacterium leprae [29]
  Activity: 101%
[30]
  concentration at 1344 h: 52 ng/mL
Mycobacterium leprae [31]
  Activity: 0.65 pmol

## CC1COc2c(N3CCN(C)CC3)c(F)cc3c(=O)c(C(=O)O)cn1c23 (stereo not given) [OFLOXACIN]
Mycobacterium leprae [32]
  Activity: 0%
Mycobacterium leprae [33]
  Activity: 72%
Mycobacterium leprae [34]
  fractional inhibitory concentration index (FICI): 0.5
Mycobacterium leprae [35]
  fractional inhibitory concentration index (FICI): 1
Mycobacterium leprae [36]
  Activity: 0%
Mycobacterium leprae [37]
  fractional inhibitory concentration index (FICI): 0.5
Mycobacterium leprae [38]
  Activity: 0%
Mycobacterium leprae [39]
  Activity: 121%
Mycobacterium leprae [40]
  Activity: 124%
